We go through 2 compounds from ChEMBL document CHEMBL1667729, “Malyngamide 2, an oxidized lipopeptide with nitric oxide inhibiting activity from a Papua New Guinea marine cyanobacterium” (J Nat Prod, 2011).

Assay [1] relates to RAW264.7. Put plainly: Cytotoxicity against mouse RAW264.7 cells at 21 uM. Particulars: read-out: Survival. The format is functional.
Assay [2] has as its system RAW264.7. Put plainly: Anti-inflammatory activity against mouse RAW264.7 cells assessed as inhibition of LPS-induced NO production after 24 hrs. The conditions noted are these: RAW264.7, 24 h. Type of assay: functional, cell-based.
For another assay, the system named is NCI-H460. Put plainly: Cytotoxicity against human H460 cells. Type of assay: functional, cell-based.
In a further assay the test system is Neuro2a. Put plainly: Inhibition of voltage-gated sodium channel in mouse Neuro2a cells at 17.5 uM.

Calls of active or inactive are those of the source. The calls are words filed in the database; no cut-off is given here. Numbered stars: 1 amine (or outer) side, 2 acyl side, 3 side chain; on linkers, the order of the positions; unused ones are H or OH. Square brackets hold non-standard residues; d marks the D form. Peptide text beside a SMILES is read from it. PheOxz = O=C(c1coc([C@H](Cc2ccccc2)N[*:1])n1)[*:2]; X2 = CC[C@H](C)[C@H](N[*:1])c1nc(C(=O)[*:2])co1; X1 = Cc1oc([C@@H](N[*:1])C(C)C)nc1C(=O)[*:2]

Consider `CCCCCCC[C@@H](C/C=C/CCC(=O)NC/C(=C/Cl)[C@@H]1C(=O)[C@H](O)C[C@@H](O)[C@]1(C)O)OC` [MALYNGAMIDE], for which the viability at 21 µM with RAW264.7 [1] is 94%. Besides, the IC50 in the assay with RAW264.7 [2] was 8 µM; with NCI-H460, 27.3 µM.
For `CC[C@H](C)[C@@H]1NC(=O)[C@@H]2CCCN2C(=O)[C@H](Cc2ccccc2)NC(=O)c2coc(n2)[C@H](Cc2ccccc2)NC(=O)c2nc(oc2C)[C@H](C(C)C)NC(=O)CNC(=O)[C@@H]2CCCN2C(=O)[C@@H]2CCCN2C(=O)[C@H](C)NC(=O)c2coc1n2` [WEWAKAZOLE] (cyclo(APPG[X1][PheOxz]FP[X2])), in the assay on Neuro2a, the inhibition result was “inactive”. The same compound showed a half-inhibitory concentration (IC50) in the assay on NCI-H460 of 10.1 µM.

Broadly, the IC50 is the concentration at which inhibition is half-maximal.
